Experimental data taken from paper PMC8618917 (Pharmaceutics, 2021).
Read-outs that look alike come from different tables or passages of the source.

What was measured:
[1] = in vitro; conditions: human
[2] = tested on: MERS-CoV; assay: microbe, parasite or virus in culture; format: cell-based; conditions: for IC50: read-out: IC50, MERS-CoV virus-induced cytopathic effect
[3] = tested on: MERS-CoV, SARS-CoV, and SARS-CoV-2; assay: organism not typed; format: cell-based
[4] = tested on: SARS-CoV; assay: microbe, parasite or virus in culture; format: cell-based; conditions: read-out: IC50, inhibition of SARS-CoV infection
[5] = tested on: SARS-CoV-2; assay: microbe, parasite or virus in culture; format: cell-based; conditions: read-out: IC50, inhibition of SARS-CoV-2 infection
[6] = Five-day repeated dose toxicity study; conditions: mice; for Death / Time of 100% death after administration: intraperitoneal 10 mg/kg/day
[7] = tested on: MERS-CoV; assay: microbe, parasite or virus in culture; format: cell-based; conditions: for IC50: read-out: IC50, inhibition of MERS-CoV infection
[8] = tested on: CYP450 isozymes; assay: CYP450 inhibition, text summary over isozymes
[9] = Rat pharmacokinetic study
[10] = Plasma protein binding, text summary over mouse and rat; conditions: in mouse and rat
[11] = Plasma protein binding, rat (rapid equilibrium dialysis)
[12] = Liver microsomal metabolic stability, rat; conditions: 1 μM compound, liver microsomes, 30 min
[13] = Liver microsomal metabolic stability, human; conditions: 1 μM compound, liver microsomes, 30 min
[14] = Plasma protein binding, mice (rapid equilibrium dialysis); conditions: mouse
[15] = Liver microsomal metabolic stability, mice; conditions: 1 μM compound, liver microsomes, 30 min
[16] = Liver microsomal stability, text summary over mouse, rat and human; conditions: rat, human, liver microsomes
[17] = Middle East respiratory syndrome-related coronavirus, Calu-3, 72 h
[18] = Severe acute respiratory syndrome coronavirus, Vero
[19] = Severe acute respiratory syndrome coronavirus 2, Vero
[20] = intraperitoneal 2 mg/kg/day, data not shown
[21] = Middle East respiratory syndrome-related coronavirus, Vero, 24 h
[22] = intraperitoneal 10 mg/kg/day for 5 days
[23] = read-out: IC50, anti-coronavirus activity (range over both compounds and the viruses)
[24] = male, Sprague-Dawley, plasma, iv, 1 mg/kg
[25] = male, Sprague-Dawley, plasma, po, 2 mg/kg

Row | SMILES | CC50 [1] | Selectivity index (SI) [2] | IC50 [2, 17] | IC50 [2] | IC50 [4, 18] | IC50 [5, 19] | Survival [6, 20] | Death [6] | Time of 100% death after administration [6] | IC50 [7, 21] | IC50 [5] | Survival [6, 22] | IC50 [4] | also measured
1 | C[C@]12CC[C@H](O)C[C@H]1CC[C@@H]1[C@@H]2CC[C@]2(C)[C@@H](c3ccc(=O)oc3)CC[C@]12O [bufalin] | > 50000 nM | > 91.9 | 544 nM | 544 nM | 16 nM | 19 nM | 100% | 100% | 1 days | 18 nM | – | – | – | IC50 ([3]; read-out: IC50, anti-SARS-CoV and SARS-CoV-2 activity (range over both viruses)): 16 to 19 nM
2 | CC(=O)O[C@H]1C[C@]2(O)[C@@H]3CC[C@@H]4C[C@@H](O)CC[C@]4(C)[C@H]3CC[C@]2(C)[C@H]1c1ccc(=O)oc1 [bufotalin] | > 50000 nM | > 30.7 | 1630 nM | – | 27 nM | 72.9 nM | – | – | – | 63 nM | 72 ± 1 nM | 100% | – | –
3 | CC(=O)O[C@H]1[C@H]2O[C@]23[C@@H]2CC[C@@H]4C[C@@H](O)CC[C@]4(C)[C@H]2CC[C@]3(C)[C@H]1c1ccc(=O)oc1 [cinobufagin] | > 50000 nM | – | 616 nM | 616 nM | 60.9 nM | 72.2 nM | 100% | 100% | 2 days | 17 nM | 72 ± 1 nM | – | 60 ± 2 nM | inhibition at 10 µM [8]: 4 to 46%; Time within which all rats (n = 3) died ([9]; 1 mg/kg IV injection, data not shown): ≤ 10 min; Detection in plasma after PO injection ([9]; 30 min after PO injection, 2 mg/kg, data not shown): not detected; fraction unbound at 4 h, 5 μM ([10]; mouse, rat, plasma, PPB rate): 0.1 to 0.22; fraction unbound at 4 h, 5 μM [11]: 0.218; MS (% of Remaining), Rat [12]: 4.40%; MS (% of Remaining), Human [13]: 2.99%; fraction unbound at 4 h, 5 μM [14]: 0.092; MS (% of Remaining), Mice [15]: 0.18%; remaining at 0.5 h, 1 μM [16]: < 5%
4 | CC(=O)O[C@H]1[C@H]2O[C@]23[C@@H]2CC[C@]4(O)C[C@@H](O)CC[C@]4(C)[C@H]2CC[C@]3(C)[C@H]1c1ccc(=O)oc1 [cinobufotalin] | > 50000 nM | > 12.6 | 3960 nM | – | 429 nM | 399 nM | – | – | – | 230 nM | 399 ± 8 nM | 100% | 429 ± 17 nM | IC50 [3, 23]: 231 to 1610 nM; IC50 [7]: 231 ± 14 nM
5 | C[C@H]1O[C@@H](O[C@H]2[C@@H](O)C[C@H](O[C@H]3[C@@H](O)C[C@H](O[C@H]4CC[C@@]5(C)[C@H](CC[C@@H]6[C@@H]5CC[C@]5(C)[C@@H](C7=CC(=O)OC7)CC[C@]65O)C4)O[C@@H]3C)O[C@@H]2C)C[C@H](O)[C@@H]1O [digitoxin, Digitoxin] | > 50000 nM | > 33.4 | 1500 nM | – | 62.1 nM | 59.9 nM | 100% | 100% | 4 days | 67 nM | 59 ± 1 nM | – | 62 ± 1 nM | Selectivity index (SI, CC50/IC50) [7]: > 147.9
6 | C[C@]12CC[C@H](O)C[C@H]1CC[C@@H]1[C@@H]2CC[C@]2(C)[C@@H](c3ccc(=O)oc3)C[C@H]3O[C@]132 [resibufogenin] | > 50000 nM | > 3.1 | 16000 nM | – | 1360 ± 59 nM | 1610 ± 63 nM | – | – | – | 1610 nM | – | – | – | IC50 [3, 23]: 231 to 1610 nM
7 | C[C@]12CC[C@H](O)C[C@@]1(O)CC[C@@H]1[C@@H]2CC[C@]2(C)[C@@H](c3ccc(=O)oc3)CC[C@]12O [telocinobufagin] | > 50000 nM | – | 464 nM | 465 nM | 71.2 nM | 142 nM | – | – | – | 27 nM | 142 ± 2 nM | 100% | 71 ± 2 nM | inhibition at 10 µM [8]: 1.4 to 21%; Ft (oral bioavailability) ([9]; P.O., 2 mg/kg): 33.2%; AUC [9, 24]: 604 ± 159 ng·h/mL; Vd [9, 24]: 0.275 ± 0.169 L/kg; clearance [9, 24]: 28.8 mL/min/kg; half-life [9, 24]: 13.5 ± 1.2 min; AUC [9, 25]: 488 ± 204 ng·h/mL; Cmax [9, 25]: 537 ± 227 ng/mL; Tmax [9, 25]: 20 ± 8.64 min; half-life [9, 25]: 30.6 ± 24.4 min; bioavailability ([9]; male, Sprague-Dawley, plasma, po, 2 mg/kg, Ft (oral bioavailability), P.O.): 33%; PPB rate [10]: 96–97%; fraction unbound at 4 h, 5 μM [11]: 0.032; MS (% of Remaining), Rat [12]: 31.9%; MS (% of Remaining), Human [13]: 15.1%; fraction unbound at 4 h, 5 μM [14]: 0.022; MS (% of Remaining), Mice [15]: 21.7%; remaining at 0.5 h, 1 μM [16]: 15 to 30%
